In patent US20180110754A1, “CENICRIVIROC FOR THE TREATMENT OF FIBROSIS” (Tobira Therapeutics, Inc., priority 2015, published 2018):

Legend:
[1] = Study 202: treatment-emergent laboratory abnormalities (DAIDS grades; CPK, ALT, AST, bilirubin); assay type: in vivo; conditions: CVC 200 mg (N = 57), through Week 48
Text: The number of subjects with graded treatment-emergent laboratory abnormalities in selected liver parameters of interest is shown in Table 34. No Grade 4 ALT or AST elevations were observed. Except for one Grade 3 AST elevation, all ALT and AST elevations were Grade 1 or Grade 2. […] All abnormalities in bilirubin were Grade 1 or Grade 2. […]

[2] = system: MCP-1, sCD14, hs-CRP, IL-6, D-dimer, fibrinogen; assay: Study 202: biomarkers of inflammation and immune function; assay type: in vivo, human
Description: As an exploratory analysis, levels of inflammation biomarkers MCP-1, sCD14, high sensitivity C-reactive protein [hs-CRP], interleukin-6 [IL-6], D-dimer, and fibrinogen) were measured. Baseline values and changes from baseline at Week 24 and Week 48 of MCP-1, sCD14, hs-CRP, IL-6, D-dimer, and fibrinogen are summarized in Table 25.
The sCD14 samples were originally analyzed in 2 separate batches: Batch 1 included samples leading up to the Week 24 primary analysis and Batch 2 included Week 32 and Week 48 (end of study) samples. A repeat analysis of archived samples all analyzed in one batch was conducted for consistency in analysis across time points. To control for the effects of covariates, a linear mixed-model repeated-measures analysis was conducted on the changes from baseline in sCD14 (analysis dated September 2013).

CCCCOCCOc1ccc(-c2ccc3c(c2)/C=C(/C(=O)Nc2ccc([S@@+]([O-])Cc4cncn4CCC)cc2)CCCN3CC(C)C)cc1 [CVC, (S)-8-[4-(2-Butoxyethoxy)phenyl]-1-isobutyl-N-(4-{[(1-propyl-1H-imidazol-5-yl)methyl]sulfinyl}phenyl)-1,2,3,4-tetrahydro-1-benzazocine-5-carboxamide]
Bilirubin, worst Grade 1, n subjects [1]: 2 | Bilirubin, worst Grade 2, n subjects [1]: 1 | Bilirubin, worst Grade 3, n subjects [1]: 0 | Bilirubin, worst Grade 4, n subjects [1]: 0 | CPK increased, worst Grade 3, n subjects [1]: 6 | CPK increased, worst Grade 4, n subjects [1]: 3 | Creatine phosphokinase (CPK) increased (Grade 3 or 4), n subjects [1]: 9 | Fibrinogen decreased (Grade 3 or 4), n subjects [1]: 2 | Fibrinogen decreased, worst Grade 3, n subjects [1]: 2 | Fibrinogen decreased, worst Grade 4, n subjects [1]: 0 | Hemoglobin decreased (Grade 3 or 4), n subjects [1]: 0 | Hemoglobin decreased, worst Grade 3, n subjects [1]: 0 | Hemoglobin decreased, worst Grade 4, n subjects [1]: 0 | Neutrophils decreased (Grade 3 or 4), n subjects [1]: 0 | Neutrophils decreased, worst Grade 3, n subjects [1]: 0 | Neutrophils decreased, worst Grade 4, n subjects [1]: 0 | Phosphate decreased (Grade 3 or 4), n subjects [1]: 2 | Phosphate decreased, worst Grade 3, n subjects [1]: 2 | Phosphate decreased, worst Grade 4, n subjects [1]: 0 | Prothrombin time/INR increased, worst Grade 3, n subjects [1]: 0 | Prothrombin time/INR increased, worst Grade 4, n subjects [1]: 0 | D-dimer baseline value, mean ([2]; CVC 100 mg): 187 ng/mL | D-dimer baseline value, median ([2]; CVC 100 mg): 150 ng/mL | D-dimer change from baseline at Week 24, mean ([2]; CVC 100 mg): -32 ng/mL | D-dimer change from baseline at Week 24, median ([2]; CVC 100 mg): -1.0 ng/mL | D-dimer change from baseline at Week 48, mean ([2]; CVC 100 mg): -41 ng/mL | D-dimer change from baseline at Week 48, median ([2]; CVC 100 mg): -1.0 ng/mL | Fibrinogen baseline value, mean ([2]; CVC 100 mg): 236 mg/dL | Fibrinogen baseline value, median ([2]; CVC 100 mg): 229 mg/dL | Fibrinogen change from baseline at Week 24, mean ([2]; CVC 100 mg): -3 mg/dL | Fibrinogen change from baseline at Week 24, median ([2]; CVC 100 mg): -14 mg/dL | Fibrinogen change from baseline at Week 48, mean ([2]; CVC 100 mg): 11 mg/dL | Fibrinogen change from baseline at Week 48, median ([2]; CVC 100 mg): 15 mg/dL | IL-6 baseline value, mean ([2]; CVC 100 mg): 2.51 pg/mL | IL-6 baseline value, median ([2]; CVC 100 mg): 1.90 pg/mL | IL-6 change from baseline at Week 24, mean ([2]; CVC 100 mg): 0.42 pg/mL | IL-6 change from baseline at Week 24, median ([2]; CVC 100 mg): 0.00 pg/mL | IL-6 change from baseline at Week 48, mean ([2]; CVC 100 mg): 0.29 pg/mL | IL-6 change from baseline at Week 48, median ([2]; CVC 100 mg): 0.00 pg/mL | MCP-1 baseline value, mean ([2]; CVC 100 mg): 128 pg/mL | MCP-1 baseline value, median ([2]; CVC 100 mg): 110 pg/mL | MCP-1 change from baseline at Week 24, mean ([2]; CVC 100 mg): 493 pg/mL | MCP-1 change from baseline at Week 24, median ([2]; CVC 100 mg): 429 pg/mL | MCP-1 change from baseline at Week 48, mean ([2]; CVC 100 mg): 636 pg/mL | MCP-1 change from baseline at Week 48, median ([2]; CVC 100 mg): 523 pg/mL | hs-CRP baseline value, mean ([2]; CVC 100 mg): 0.39 mg/dL | hs-CRP baseline value, median ([2]; CVC 100 mg): 0.15 mg/dL | hs-CRP change from baseline at Week 24, mean ([2]; CVC 100 mg): -0.16 mg/dL | hs-CRP change from baseline at Week 24, median ([2]; CVC 100 mg): -0.03 mg/dL | hs-CRP change from baseline at Week 48, mean ([2]; CVC 100 mg): -0.08 mg/dL | hs-CRP change from baseline at Week 48, median ([2]; CVC 100 mg): -0.01 mg/dL | sCD14 (original values) baseline value, mean ([2]; CVC 100 mg): 1.8e+06 pg/mL | sCD14 (original values) baseline value, median ([2]; CVC 100 mg): 1.73e+06 pg/mL | sCD14 (original values) change from baseline at Week 12, mean ([2]; CVC 100 mg): -140000 pg/mL | sCD14 (original values) change from baseline at Week 12, median ([2]; CVC 100 mg): -160000 pg/mL | sCD14 (original values) change from baseline at Week 24, mean ([2]; CVC 100 mg): -190000 pg/mL | sCD14 (original values) change from baseline at Week 24, median ([2]; CVC 100 mg): -180000 pg/mL | sCD14 (original values) change from baseline at Week 32, mean ([2]; CVC 100 mg): 110000 pg/mL | sCD14 (original values) change from baseline at Week 32, median ([2]; CVC 100 mg): 120000 pg/mL | sCD14 (original values) change from baseline at Week 48, mean ([2]; CVC 100 mg): 100000 pg/mL | sCD14 (original values) change from baseline at Week 48, median ([2]; CVC 100 mg): 100000 pg/mL | D-dimer baseline value, mean ([2]; CVC 200 mg): 184 ng/mL | D-dimer baseline value, median ([2]; CVC 200 mg): 125 ng/mL | D-dimer change from baseline at Week 24, mean ([2]; CVC 200 mg): -64 ng/mL | D-dimer change from baseline at Week 24, median ([2]; CVC 200 mg): -50 ng/mL | D-dimer change from baseline at Week 48, mean ([2]; CVC 200 mg): -70 ng/mL | D-dimer change from baseline at Week 48, median ([2]; CVC 200 mg): -50 ng/mL | Fibrinogen baseline value, mean ([2]; CVC 200 mg): 248 mg/dL | Fibrinogen baseline value, median ([2]; CVC 200 mg): 260 mg/dL | Fibrinogen change from baseline at Week 24, mean ([2]; CVC 200 mg): -7 mg/dL | Fibrinogen change from baseline at Week 24, median ([2]; CVC 200 mg): -8 mg/dL | Fibrinogen change from baseline at Week 48, mean ([2]; CVC 200 mg): -10 mg/dL | Fibrinogen change from baseline at Week 48, median ([2]; CVC 200 mg): -13 mg/dL | IL-6 baseline value, mean ([2]; CVC 200 mg): 3.34 pg/mL | IL-6 baseline value, median ([2]; CVC 200 mg): 1.90 pg/mL | IL-6 change from baseline at Week 24, mean ([2]; CVC 200 mg): 0.81 pg/mL | IL-6 change from baseline at Week 24, median ([2]; CVC 200 mg): 0.00 pg/mL | IL-6 change from baseline at Week 48, mean ([2]; CVC 200 mg): -0.04 pg/mL | IL-6 change from baseline at Week 48, median ([2]; CVC 200 mg): 0.00 pg/mL | MCP-1 baseline value, mean ([2]; CVC 200 mg): 153 pg/mL | MCP-1 baseline value, median ([2]; CVC 200 mg): 137 pg/mL | MCP-1 change from baseline at Week 24, mean ([2]; CVC 200 mg): 753 pg/mL | MCP-1 change from baseline at Week 24, median ([2]; CVC 200 mg): 695 pg/mL | MCP-1 change from baseline at Week 48, mean ([2]; CVC 200 mg): 900 pg/mL | MCP-1 change from baseline at Week 48, median ([2]; CVC 200 mg): 756 pg/mL | hs-CRP baseline value, mean ([2]; CVC 200 mg): 0.46 mg/dL | hs-CRP baseline value, median ([2]; CVC 200 mg): 0.15 mg/dL | hs-CRP change from baseline at Week 24, mean ([2]; CVC 200 mg): -0.04 mg/dL | hs-CRP change from baseline at Week 24, median ([2]; CVC 200 mg): -0.04 mg/dL | hs-CRP change from baseline at Week 48, mean ([2]; CVC 200 mg): -0.18 mg/dL | hs-CRP change from baseline at Week 48, median ([2]; CVC 200 mg): -0.04 mg/dL | sCD14 (original values) baseline value, mean ([2]; CVC 200 mg): 1.88e+06 pg/mL | sCD14 (original values) baseline value, median ([2]; CVC 200 mg): 1.86e+06 pg/mL | sCD14 (original values) change from baseline at Week 12, mean ([2]; CVC 200 mg): -230000 pg/mL | sCD14 (original values) change from baseline at Week 12, median ([2]; CVC 200 mg): -210000 pg/mL | sCD14 (original values) change from baseline at Week 24, mean ([2]; CVC 200 mg): -230000 pg/mL | sCD14 (original values) change from baseline at Week 24, median ([2]; CVC 200 mg): -190000 pg/mL | sCD14 (original values) change from baseline at Week 32, mean ([2]; CVC 200 mg): -20000 pg/mL | sCD14 (original values) change from baseline at Week 32, median ([2]; CVC 200 mg): -20000 pg/mL | sCD14 (original values) change from baseline at Week 48, mean ([2]; CVC 200 mg): -40000 pg/mL | sCD14 (original values) change from baseline at Week 48, median ([2]; CVC 200 mg): -40000 pg/mL
